From patent publication US20260335295A1, “PHARMACEUTICAL COMPOSITION COMPRISING HTRA ACTIVATOR AS ACTIVE INGREDIENT FOR PREVENTING OR TREATING DEGENERATIVE DISEASES, AND METHOD FOR SCREENING HTRA ACTIVITY MODULATOR” (THE ASAN FOUNDATION, priority 2023, published 2026)

Experiments:
[1] = target: T1, HTRA1 (Homo sapiens, UniProt Q92743); experiment: HTRA1 activity assay with fluorogenic substrate H2-Opt (high-throughput screening); assay type: biochemical
Method: (§1) HTRA activity was identified through high-throughput screening using H2-Opt, a commercially available fluorogenic substrate.
(§2) Specifically, purified recombinant HTRA1 protein (50 ng) and a compound (final concentration of 10 μM) were added to 80 μL of an assay buffer in each well of a 96-well plate and were allowed to stand at room temperature for 30 minutes. Immediately after 20 μL of an H2-OPT solution (final concentration of 6.25 μM) was added thereto and mixed, fluorescence signals generated therefrom were measured using an MS microplate reader device manufactured by Molecular Devices. Upon measurement of the fluorescence signals in kinetic mode, excitation and emission were set to 328 nm and 393 nm, respectively, and changes in the fluorescence signals were measured at 37 °C for 3 hours at intervals of 30 seconds.
(§3) Specifically, different concentrations of E09 (0.01, 0.1, 1, 10, and 100 (M) w ere added to purified recombinant HTRA1 and HTRA2, and activities of HTRA1 and HTRA2 were measured in the same manner as the high-throughput screening of Example 1. Fluorescence signals at the end of measurement (3 hours) were measured for each concentration. Graphs obtained by measuring the fluorescence signals of HTRA1 and HTRA2 are shown in FIGS. 2 and 3.

[2] = target: T2, HTRA2 (Homo sapiens, UniProt O43464); experiment: HTRA2 activity assay with fluorogenic substrate H2-Opt; assay type: biochemical
T2 sequence (O43464 134-458): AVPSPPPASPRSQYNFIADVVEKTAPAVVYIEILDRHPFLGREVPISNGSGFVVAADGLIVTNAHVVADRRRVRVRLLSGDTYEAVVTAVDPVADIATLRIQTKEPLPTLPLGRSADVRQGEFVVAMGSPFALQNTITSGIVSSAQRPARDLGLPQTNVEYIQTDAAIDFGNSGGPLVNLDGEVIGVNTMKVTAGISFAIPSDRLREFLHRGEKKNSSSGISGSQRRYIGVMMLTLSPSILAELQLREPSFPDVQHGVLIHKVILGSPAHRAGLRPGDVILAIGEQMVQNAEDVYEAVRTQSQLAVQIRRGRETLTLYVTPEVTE
Method: as §1, §2, §3

[3] = target: T1, HTRA1; experiment: HTRA1 activation in human blood samples; conditions: no method given
[4] = target: T1, HTRA1; experiment: HTRA1 activity in HeLa cells with HTRA1 activity-based probe DS-1-94, fluorescence microscopy; assay type: cell-based; conditions: E09 10 μM, DS-1-94 5 μM, 37 °C, 1 hour, FIG. 4
Method: To confirm whether HTRA1 activity increases even when cells are treated with E09, HTRA1 activity according to the presence or absence of E09 was identified by treating Hela cells, which are human adenocarcinoma cells, with an HTRA1 activity-based probe (DS-1-94, final concentration of 5 μM) and E09 (HTRA activator, final concentration of 10 μM).
Specifically, the cells treated with the HIRAI activity-based probe (DS-1-94) and E09 (HTRA activator) were maintained in a 37 °C incubator for 1 hour.

[5] = target: T1, HTRA1; experiment: HTRA1 enzyme activity on addition of casein, PDZ-opt (GQYYFV) or E09; assay type: biochemical; conditions: 10 μM E09 vs 2 μg β-casein or PDZ-opt; 15 minutes at room temperature, measured at 37 °C 3 hours; FIG. 5
Method: HTRA activity was measured utilizing E09 and the HTRA activity-based probes synthesized by the method of Example 4.1. Changes in HTRA activity w ere measured for cases in which casein, known as a substrate of an HTRA enzyme, or PDZ-opt (GQYYFV), known as a peptide that activates an HTRA enzyme, was added and a case in which E09 was added.
Specifically, 2 μg of β-casein or PDZ-opt (GQYYFV) or 10 μM of E09 was added to an HTRA1 enzyme by the method of Example 1, the mixture was allowed to stand at room temperature for 15 minutes, and then HTRA1 activity was measured at 37 °C for 3 hours in the same manner as in Example 1, and the results are shown in FIG. 5.

[6] = system: ARPE-19 retinal pigment epithelial cells; experiment: Cobblestone structure by clusterin and ZO-1 staining in NaIO3-induced dry macular degeneration cell model; assay type: cell-based; conditions: pretreated 24 hours, co-treated with NaIO3 12 hours
Method: (§4) In order to confirm the preventive or therapeutic effect of compound E09 on age-related macular degeneration (AMD), a dry age-related macular degeneration (AMD)-like cell model induced by treatment with NaIO3 was established.
(§5) Specifically, ARPE-19 retinal pigment epithelial cells were seeded at a density of 1.66× 10^5 cells/cm^2 and cultured for two weeks in a medium containing nicotinamide. Thereafter, the cells were re-seeded onto laminin-coated Transwell inserts.
(§6) After culture for one month in a medium containing nicotinamide, the cells were treated with NaIO3 for 12 hours to induce cell injury (NaIO3-alone treatment group), wherein NaIO3 is commonly used for inducing dry age-related macular degeneration (AMD). Structural changes in the cells were then evaluated by analyzing clusterin and ZO-1. E09 and the HtrA1 inhibitor were dissolved in dimethyl sulfoxide (DMSO) and used for the experiments.
(§7) In order to evaluate the effect of E09 on NaIO3-induced cell injury, E09 was pretreated 24 hours prior to NaIO3 treatment and subsequently co-treated with NaIO3 for 12 hours (E09-treated group).
In addition, under the same conditions, NaIO3 and an HtrA1 inhibitor were administered, and a TUNEL assay was performed to evaluate cytotoxicity.

[7] = system: ARPE-19 retinal pigment epithelial cells; experiment: Cell death by TUNEL assay in NaIO3-induced dry macular degeneration cell model; assay type: cell-based; conditions: pretreated 24 hours, co-treated with NaIO3 12 hours, FIG. 7E-H
Method: as §4, §5, §6, §7
In addition, under the same conditions, NaIO3 and an HtrA1 inhibitor were administered, and a TUNEL assay was performed to evaluate cytotoxicity. […]

[8] = system: ARPE-19 retinal pigment epithelial cells; experiment: Immunostaining of ApoE and Cathepsin D in three-dimensional long-term culture macular degeneration cell model; assay type: cell-based; conditions: ARPE-19, 4.5 months culture; vs control group; FIGS. 9A-C
From the text: (§8) In order to verify the preventive or therapeutic effect of compound E09 on age-related macular degeneration (AMD) under conditions similar to an in vivo environment, a macular degeneration cell model using a three-dimensional (3D) long-term culture system was established.
(§9) The model was designed to induce apical-basal polarization of ARPE-19 cells and to reproduce the structural and functional differentiation characteristics of retinal pigment epithelium (RPE), as well as pathological drusen accumulation patterns, through nicotinamide-based long-term culture.
as §5
(§10) Subsequently, the medium was replaced every 2-3 days with a medium containing E09 or an HtrA1 inhibitor, and the cells were differentiated for 4.5 months (untreated control group (ctrl), E09-treated group, and HtrA1 inhibitor-treated group).

[9] = system: ARPE-19 retinal pigment epithelial cells; experiment: Cell barrier structure by ZO-1 and clusterin staining in three-dimensional long-term culture macular degeneration cell model; assay type: cell-based; conditions: ARPE-19, 4.5 months culture; FIGS. 9D-F
From the text: as §8, §9, §5, §10

[10] = system: ARPE-19 retinal pigment epithelial cells; experiment: Holotomography analysis in three-dimensional long-term culture macular degeneration cell model; assay type: cell-based; conditions: ARPE-19, 4.5 months culture; FIGS. 9J-L
From the text: as §8, §9, §5, §10

[11] = system: ARPE-19 retinal pigment epithelial cells; experiment: Microvilli formation in three-dimensional long-term culture macular degeneration cell model; assay type: cell-based; conditions: ARPE-19, 4.5 months culture; FIGS. 9G-I
From the text: as §8, §9, §5, §10

[12] = system: NaIO3-induced mouse macular degeneration model (retina); experiment: NaIO3-induced mouse macular degeneration model, H&E staining and thickness of retina; assay type: in vivo, C57BL/GJ mice; conditions: intravitreal injection on Day −1, NaIO3 IV day 0, eyes five days after NaIO3
Method: Specifically, C57BL/GJ mice (6 weeks old) were acclimated for one week, and on experimental day 0, NaIO3 was administered via intravenous injection (IV) to induce retinal injury. To evaluate drug efficacy, E09 or an HtrA1 inhibitor was pre-administered by intravitreal injection one day prior to NaIO3 administration (Day −1).
Five days after administration of NaIO3, the eyes were enucleated, and the tissues. were fixed and sectioned. Hematoxylin & Eosin (H&E) staining was then performed to observe morphological changes in the retina.
In particular, the structural preservation status and thickness changes of the retinal pigment epithelium (RPE) layer, photoreceptor outer segments (POS), and the outer nuclear layer (ONL) were primarily analyzed.

[13] = system: gene sets (transcriptome); experiment: Transcriptome analysis (GSEA) in a pathological model of macular degeneration (AMD); conditions: vs control group, FIG. 12 upper left
Method: The collected transcriptome data were analyzed at the gene set level using Gene Set Enrichment Analysis (GSEA).
FIG. 12 is a graph showing the results of GSEA (Gene Set Enrichment Analysis) performed after transcriptome analysis following treatment with Compound E09 or an HTRA1 inhibitor in a pathological model of macular degeneration (AMD).

T1 sequence (Q92743 23-480): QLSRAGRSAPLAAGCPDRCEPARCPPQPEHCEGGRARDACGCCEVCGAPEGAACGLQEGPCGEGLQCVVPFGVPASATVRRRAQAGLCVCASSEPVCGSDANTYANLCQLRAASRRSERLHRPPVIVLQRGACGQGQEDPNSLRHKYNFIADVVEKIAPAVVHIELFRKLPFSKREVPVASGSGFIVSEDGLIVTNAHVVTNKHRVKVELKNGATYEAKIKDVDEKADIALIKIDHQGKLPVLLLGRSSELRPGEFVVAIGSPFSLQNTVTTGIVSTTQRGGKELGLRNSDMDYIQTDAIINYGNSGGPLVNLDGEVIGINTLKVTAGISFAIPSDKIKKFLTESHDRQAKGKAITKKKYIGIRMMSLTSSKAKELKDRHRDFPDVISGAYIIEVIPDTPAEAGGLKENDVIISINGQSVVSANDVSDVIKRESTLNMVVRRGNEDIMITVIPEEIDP

SMILES: COC(=O)C1CCC(NC(=O)c2ccc(-c3nc(C)cs3)cc2)(C(=O)OC)CC1 (centres unmarked) [Compound E09, dimethyl 1-(4-(4-methylthiazol-2-yl)benzamido)cyclohexane-1,4-dicarboxylate]
- dose dependency of HTRA1 activity ([1]; 0.01, 0.1, 1, 10, and 100 (M) as printed, signal at 3 hours, FIG. 2): activates HTRA1 and HTRA2 in a dose-dependent manner
- activation ability in HTRA1 (both HTRA1 and HTRA2) ([1]; Example 1, in words): excellent activation ability in both HTRA1 and HTRA2
- HTRA1 activation ([1]; screening, final concentration of 10 μM, H2-OPT 6.25 μM, 37 °C, 3 hours, FIG. 1): significantly activate HTRA1
- dose dependency of HTRA2 activity ([2]; 0.01, 0.1, 1, 10, and 100 (M) as printed, signal at 3 hours, FIG. 3): activates HTRA1 and HTRA2 in a dose-dependent manner
- activation ability in HTRA2 (both HTRA1 and HTRA2) ([2]; Example 1, in words): excellent activation ability in both HTRA1 and HTRA2
- HTRA1 activation in human blood samples [3]: also activates HTRA1 in human blood samples
- fluorescence signal of HTRA1 probe (HTRA1 activity) [4]: fluorescence signal markedly increased
- HTRA1 activation compared with casein or PDZ-opt (GQYYFV) [5]: activates the HTRA1 enzyme at room temperature far more significantly than casein or PDZ-opt (GQYYFV)
- structural damage induced by NaIO3 / cobblestone structure ([6]; FIG. 7A-D): structural damage induced by NaIO3 was significantly suppressed
- monolayer structure of the cells ([6]; FIG. 7C): the monolayer structure of the cells was preserved
- NaIO3-induced cell death (TUNEL assay) [7]: NaIO3-induced cell death was significantly suppressed
- expression / accumulation of ApoE (drusen marker) [8]: expression levels of these markers tended to decrease compared with the control group
- expression / accumulation of cathepsin D (drusen marker) [8]: expression levels of these markers tended to decrease compared with the control group
- ZO-1 and clusterin staining pattern (epithelial barrier) [9]: maintained a continuous and regular staining pattern along the cell boundaries, indicating formation of a robust epithelial barrier structure
- cytoskeletal structure (holotomography) [10]: a stable cytoskeletal structure was maintained
- microvilli formation [11]: increased microvilli development
- tissue continuity (H&E) ([12]; FIG. 11A): tissue continuity was well maintained
- ONL thickness ([12]; FIG. 11B): significantly suppressed NaIO3-induced thinning and protected retinal structure
- separation of the retinal (RPE-POS) layers (H&E) ([12]; vs DMSO control, FIG. 11A): separation of the retinal layers was markedly suppressed
- expression of gene sets associated with retinal vascular lesions (retinal telangiectasia and vascular tortuosity) [13]: overall tendency toward decreased expression
